Experimental data: US7468449B2, “Phenyl-furan compounds as vitamin D receptor modulators” (Eli Lilly and Company, priority 2003, dated 2008)
“And” between values parts separate entries of the source, which are not always exact repeats. Equal entries are not always repeated. Where two headings read alike, the source gives them in different places.

Tests used:
VDR = target: T1, VDR (Homo sapiens, UniProt P11473); test: VDR CTF (Caco-2 cell co-transfection) assay; format: cell-based; settings: Caco-2 cells, Gal-4-VDR-LBD co-transfection; Table 1
T1 construct: the receptor expression vector pGal-4-VDR-LBD (10 ng); expressed in transfected cells; host or cells: Caco-2 cells
T1 sequence (P11473 127-423 limits assumed): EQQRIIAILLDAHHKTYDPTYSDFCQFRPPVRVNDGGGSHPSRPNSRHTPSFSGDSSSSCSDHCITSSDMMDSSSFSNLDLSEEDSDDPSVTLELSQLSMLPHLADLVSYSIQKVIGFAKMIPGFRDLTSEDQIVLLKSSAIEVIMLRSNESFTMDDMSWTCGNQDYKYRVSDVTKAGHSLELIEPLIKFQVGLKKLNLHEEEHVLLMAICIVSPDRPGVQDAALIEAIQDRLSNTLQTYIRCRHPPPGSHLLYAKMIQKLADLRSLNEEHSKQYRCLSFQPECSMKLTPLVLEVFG
Protocol: 2. The Caco-2 Cell Co-transfection Assay:
The Caco-2 cell assay is an indicator for the undesirable condition of hypercalcemia. This co-transfection assay is a surrogate assay for in vivo calcemic activity of VDR ligands. […] Preferred assay results are greater than 1000 nM.
(§1) Step 4: FuGENE, DNA and Media Complex to-well plate • Add FuGENE-DNA-Media complex from step 3 to each plate • Incubate. […] Day 4: Luciferase Assay • Read the plates after drug treatment • Remove part of media from all the wells and leave remainder • Add Steady-Glo Luciferase Reagent mixture/wells • Incubate • Count each well using a Luminescence counter, Top Count NXT by Packard Set a delay between plates to reduce the background. (2) Materials and Method for The Caco-2 Cell Assay:
Caco-2 cells, grown in phenol red free, DMEM (Invitrogen, Carlsbad, Calif.) containing 10% charcoal-stripped FCS (Hyclone, Logan, Utah), were transfected with Fugene 6 reagent (Roche Diagnostics, Indianapolis, Ind.). Cells (5000/well) were plated 18 h before transfection in a 96 well plate. The Cells were transfected with Gal-4-responsive reporter pFRLuc (150 ng, Stratagene, La Jolla Calif.) and the receptor expression vector pGal-4-VDR-LBD (10 ng), along with Fugene 6 reagent (0.2 μl/well). The DNA-Fugene complex was formed by incubating the mixture for 30 min at room temperature. The cells were transfected in triplicate for 5 h, and treated with various concentrations of VDR ligands (form 0.01 nM to 10,000 nM concentration range) 18 h post-transfection. The luciferase activity was quantified using Steady-Glo reagent kit (Promega, Madison, Wis.) as per manufacturer's specifications.

rat osteocalcin promoter = test: OCN (osteocalcin) promoter assay; format: cell-based; settings: RG-15 (ROS 17/2.8) cells, 48 hr treatment
Protocol: 3. The OCN (osteocalcin) Promoter Assay
The OCN Promoter Assay is an indicator and marker for osteoporosis. […] Preferred assay results are less than 50 nM.
(3) Materials and Method for The OCN Promoter Assay:
The activation of osteocalcin by VDR ligands was evaluated in a rat osteoblast-like cell line RG-15 (ROS 17/2.8) stably expressing rat osteocalcin promoter fused with luciferase reporter gene. […] After 24 hr, cells (in DMEM/F-12 medium +2% FBS) were treated with various concentrations of compounds, dissolved in DMSO. The final DMSO concentration remained at 0.01% (v/v). After 48 hr treatment, the medium was removed, cells were lysed with 50 μl of lysis buffer (From Luciferase reporter assay system, Roche Diagnostics, Indianapolis, Ind.) and assayed for luciferase activity using the Luciferase Reporter Gene Assay kit from Boehringer Mannheim as per manufacturer's specifications.

[1] = Mouse hypercalcemia assay; settings: six day hypercalcemia test, oral gavage, serum ionized calcium
Protocol: The Mouse Hypercalcemia Assay
The Mouse Hypercalcemia Assay is a six day hypercalcemia test for toxicity and selectivity. Acceptable test results are levels greater than 300 μg/kg/day. Preferred assay results are levels greater than 1000 μg/kg/day.
(4) Materials and Method for The Mouse Hypercalcemia Assay:
Weanling, virus-antibody-free, five to six weeks old female DBF mice (Harlan, Indianapolis, Ind.) are used for all the studies. Animals are allowed to acclimate to local vivarium conditions for 2 days. […] The animals then are divided into groups with 4-5 mice per group. Different doses of test compounds prepared in 10% Ethanol and 90% sesame oil are administered to mice orally via gavage for 6 days. 1α-25(OH)2D3 0.5 μg/kg/d was also given to one group of mice as the positive control. […] Raw data of group differences is assessed by analysis of variance (ANOVA) using Fisher's protected least significant difference (PLSD) where the significance level was P<0.05.

KERtr cells = test: Keratinocyte proliferation assay; format: cell-based, Human; settings: BrdU incorporation
Protocol: 5. The Keratinocyte Proliferation Assay
This Assay is indicative for the treatment of psoriasis.
(5) The Keratinocyte Proliferation Assay:
KERtr cells (Human skin keratinocyte transformed with a retrovirus vector, obtained from ATCC) were plated in 96-well flat-bottomed plates (3000 cells/well) in 100 μl keratinocyte serum free medium supplemented with bovine pituitary extract in the absence of EGF (Life Technologies, Rockville, Md.) and incubated at 37° C. for two days. The cells were treated with various concentrations of VDR ligands (ten-fold serial dilution from 10,000 nM to 0.1 nM in triplicate), dissolved in 100 μl keratinocyte serum free medium supplemented with bovine pituitary extract in the absence of EGF and incubated at 37° C. for 72 hr. […] Potency values (IC50) values were determined as the concentration (nM) of compound that elicited a half-maximal response.

RXR-VDR heterodimer = target: T2, RXR-VDR heterodimer (Homo sapiens, UniProt P11473); test: RXR-VDR heterodimerization assay (SaOS-2 cells); format: cell-based; settings: luciferase reporter, Table 1
T2 construct: Add the Gal-4-RXR-DEF and VP16-VDR-LBD; expressed in transfected cells; host or cells: SaOs-2 cells
T2 sequence (P11473 127-423 limits assumed): T1 sequence (P11473 127-423 limits assumed)
T2 sequence (P19793 201-462 partner limits assumed): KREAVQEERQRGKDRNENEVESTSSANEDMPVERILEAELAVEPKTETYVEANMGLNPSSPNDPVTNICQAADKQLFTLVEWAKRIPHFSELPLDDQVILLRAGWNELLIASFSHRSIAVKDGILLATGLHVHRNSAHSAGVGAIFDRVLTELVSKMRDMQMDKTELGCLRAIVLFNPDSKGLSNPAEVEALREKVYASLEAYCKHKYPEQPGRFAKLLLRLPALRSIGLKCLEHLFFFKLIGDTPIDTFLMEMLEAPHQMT
From the text: 1. The RXR-VDR Heterodimer Assay:
This assay provides the VDR activity of a test compound.
(1) Materials and Method for RXR-VDR Heterodimerization Assay:
Transfection/Treatment Media: • D-MEM Low Glucose Without Phenol Red only
Flat well Plates: • Use well plate to plate cells • Use Deep well plate sterile to make up treatment media.
Luciferase Assay Reagent: • Use Steady-Glo Luciferase Reagent from Promega (Cat #E2550) Consists of: • a. E2533 Assay Substrate, lyopholized product and • b. E2543 Assay Buffer. • Thaw at room temperature • Store Day 1: Cell Plating: • Cell Harvesting • Aspirate media from culture flask, rinse cells with HBSS and aspirate. • Add trypsin and incubate. • When cells appear detached, resuspend cells in growth media. • Transfer into a new flask with fresh growth media for passaging the cells. • Plate well plates and two extra plates A. Cell Count • Mix the cell suspension using pipette • Use Hematocytometer to count the cells • Load cell suspension onto the hemocytometer chamber • Count cells.
Step 1: DNA and Media • Add plain DMEM media to tubes for mixing the DNA • Add the Reporter gene pFR-LUC • Add the Gal-4-RXR-DEF and VP16-VDR-LBD
Step 2: FuGENE and Media • Prepare plain DMEM media in a ubes for mixing PuGENE • Add FuGENE 6 Transection Reagent • Incubate
Step 3: FuGENE, DNA and Media Complex • Add FuGENE Media complex from step 2 to DNA Media complex from step1 • Incubate
as §1, with “Assay: […]” for “Assay:”

[2] = Rattus norvegicus, 48 h, Table 1
[3] = 72 hr, Table 2, read-out: Kera. Prolif. IC50
[4] = Homo sapiens, Keratinocyte, 72 h, Table 4 comparison compounds, read-out: Kera. Prolif. IC50
[5] = Rattus norvegicus, 48 h, Table 3 comparison compounds

| Compound | EC50 (VDR) [nM] | IC50 (KERtr cells; [3]) [nM] | EC50 (rat osteocalcin promoter; Table 1) | EC50 (RXR-VDR heterodimer) | other results |
| --- | --- | --- | --- | --- | --- |
| CCC(CC)(c1ccc(OCC(O)C(C)(C)C)c(C)c1)c1ccc(C(=O)N(C)C)o1 (racemic) [Ex. 2, 3′-[4-(2-hydroxy-3,3-dimethylbutoxy)-3-methylphenyl]-3′-[5-dimethylaminocarbonyl-2-furanyl]pentane] | 25 | – | – | – | EC50 (rat osteocalcin promoter; [2]): 3 nM |
| CCC(CC)(c1ccc(OCC(O)C(C)(C)C)c(C)c1)c1ccc(C(=O)N(C)C)o1 (single isomer, unassigned) [Ex. 3, 3′-[4-(2-hydroxy-3,3-dimethylbutoxy)-3-methylphenyl]-3′-[5-dimethylaminocarbonyl-2-furanyl]pentane] | 391 | 1 | 4.6 nM and 2.5 nM | – | Mouse Hypercal ([1]; Table 1): >2000 µg/kg/day |
| CCC(CC)(c1ccc(OCC(O)C(C)(C)C)c(C)c1)c1ccc(C(=O)N(C)C)o1 (single isomer, unassigned) [Ex. 4, 3′-[4-(2-hydroxy-3,3-dimethylbutoxy)-3-methylphenyl]-3′-[5-dimethylaminocarbonyl-2-furanyl]pentane] | 333 | 4 | 2 nM and 1 nM | – | Mouse Hypercal ([1]; Table 1): >2000 µg/kg/day |
| CCc1cc(C(CC)(CC)c2ccc(C(=O)N(C)C)o2)ccc1OCC(O)C(C)(C)C (single isomer, unassigned; enantiomer 1) [Ex. 10, 3′-[4-(2-hydroxy-3,3-dimethyl-butoxy)-3-ethylphenyl]-3′-[5-dimethylaminocarbonyl-2-furanyl]pentane enantiomer 1] | 191 | 7 | – | – | Mouse Hypercal ([1]; Table 1): >1000 µg/kg/day |
| CCCc1cc(C(CC)(CC)c2ccc(C(=O)N(C)C)o2)ccc1OCC(O)C(C)(C)C (single isomer, unassigned; enantiomer 1) [Ex. 12, 3′-[4-(2-hydroxy-3,3-dimethyl-butoxy)-3-n-propyl-phenyl]-3′-[5-dimethylaminocarbonyl-2-furanyl]pentane enantiomer 1] | 187 | 17 | – | 188 nM | – |
| CCC(CC)(c1ccc(OCC(O)CO)c(C)c1)c1ccc(OCC(O)C(C)(C)C)c(C)c1 (centres unmarked) [BB, 3-(4-{1-Ethyl-1-[4-(2-hydroxy-3,3-dimethyl-butoxy)-3-methyl-phenyl]-propyl}-2-methyl-phenoxy)-propane-1,2-diol, reference compound] | – | – | – | – | Mouse Hypercal μg/Kg/d ([1]; Table 3 comparison compounds): >=20 μg/Kg/d; IC50 (KERtr cells; [4]): 10 nM; EC50 (rat osteocalcin promoter; [5]): 8.24 nM |
| Cc1cc(C2(c3ccc(OCC(=O)C(C)(C)C)c(C)c3)CCCCC2)ccc1OCC(=O)C(C)(C)C [CC, 1-(4-{1-[4-(3,3-Dimethyl-2-oxo-butoxy)-3-methyl-phenyl]-cyclohexyl}-2-methyl-phenoxy)-3,3-dimethyl-butan-2-one, reference compound] | – | – | – | – | EC50 (rat osteocalcin promoter; [5]): > 1000 nM |
| CCC(CC)(c1ccc(OCC(=O)C(C)(C)C)c(C)c1)c1ccc(OCC(=O)C(C)(C)C)c(C)c1 [DD, reference compound] | – | – | – | – | Mouse Hypercal ([1]; Table 3 comparison compounds): 1000 µg/kg/day; IC50 (KERtr cells; [4]): 1060 nM; EC50 (rat osteocalcin promoter; [5]): 31.1 nM |
| CCC(CC)(c1ccc(OCC(=O)C(C)(C)C)c(C)c1)c1ccc(OC[C@H](O)C(C)(C)C)c(C)c1 [EE, reference compound] | – | – | – | – | Mouse Hypercal ([1]; Table 3 comparison compounds): 1000 µg/kg/day; EC50 (rat osteocalcin promoter; [5]): 341 nM |
| CCN(CC)C(=O)c1ccc(C(CC)(CC)c2ccc(OCC(=O)C(C)(C)C)c(C)c2)o1 [Ex 7, 3′-[4-(2-oxo-3,3-dimethyl-butoxy)-3-methylphenyl]-3′-[5-diethylaminocarbonyl-2-furanyl]-pentane] | – | 23 | 95 nM | – | Mouse Hypercal ([1]; Table 1): >9000 µg/kg/day |
| CCC(O)(CC)COc1ccc(C(CC)(CC)c2ccc(C(=O)N(C)C)o2)cc1C [Ex 14, 3′-[4-(2-hydroxy-2-ethylbutoxy)-3-methylphenyl]-3′-[5-dimethylaminocarbonyl-2-furanyl]pentane] | 635 | – | – | 104 nM | EC50 (rat osteocalcin promoter; [2]): 101 nM |
| CCC(C)c1cc(C(CC)(CC)c2ccc(C(=O)N(C)C)o2)ccc1OCC(=O)C(C)(C)C (centres unmarked) [Ex. 5, 3′-[4-(2-oxo-3,3-dimethylbutoxy)-3-(2-butyl)phenyl]-3′-[5-dimethylaminocarbonyl-furan-2-yl]pentane] | 129 | – | 44 nM | 135 nM and 40 nM | IC50 (KERtr cells; Homo sapiens, Keratinocyte, 72 h, Table 2, read-out: Kera. Prolif. IC50): 1000 nM; EC50 (rat osteocalcin promoter; [2]): 33 nM |
| CCNC(=O)c1ccc(C(CC)(CC)c2ccc(OCC(=O)C(C)(C)C)c(C)c2)o1 [Ex. 6, 3′-[4-(2-oxo-3,3-dimethyl-butoxy)-3-methylphenyl]-3′-[5-ethylaminocarbonyl-2-furanyl]-pentane] | 315 | 112 | > 1000 nM | 320 nM | – |
| CCC(CC)(c1ccc(OCC(=O)C(C)(C)C)c(C)c1)c1oc(C(=O)N(C)C)cc1C [Ex. 8, 3′-[4-(2-oxo-3,3-dimethyl-butoxy)-3-methylphenyl]-3′-[5-dimethylaminocarbonyl-3-methyl-2-furanyl]-pentane] | 758 | > 1000 | 125 nM | 156 nM | – |
